From patent publication US6727237B2, “Inhibitors of bacterial NAD synthetase” (priority 1998, dated 2004)
Read-outs that look alike come from different tables or passages of the source.

Biological target: T1, bacterial NAD synthetase enzyme (Bacillus subtilis, UniProt P08164)
T1 sequence (P08164 2-272 limits assumed): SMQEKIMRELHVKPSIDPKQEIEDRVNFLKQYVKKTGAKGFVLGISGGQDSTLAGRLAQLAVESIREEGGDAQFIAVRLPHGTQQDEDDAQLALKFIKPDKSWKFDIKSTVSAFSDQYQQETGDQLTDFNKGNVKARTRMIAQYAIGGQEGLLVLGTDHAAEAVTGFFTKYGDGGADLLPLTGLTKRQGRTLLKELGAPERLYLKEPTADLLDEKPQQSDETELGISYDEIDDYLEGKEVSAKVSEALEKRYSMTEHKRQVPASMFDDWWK
Test: biochemical
Type: biochemical

[1] = compound at 0.2 mM (Table 312A)
[2] = compound at 0.2 mM (Table 312B)

## O=C(OCCCCCCCn1ccc2ccccc21)c1cccnc1 [Compound 944]
Compound at 0.05 mM
  % Inhibition: 2.06%

## C[N+](C)(C)c1ccc(C(=O)OCCCCCCCc2cc3ccc(C(F)(F)F)cc3[nH]2)cc1 [Compound 884]
  IC50: 45 µM

## O=C(O)c1ccc2[nH]c(CCCC[n+]3ccc4ccccc4c3)cc2c1 [Compound 601]
[1]
  % Inhibition: 2.22%

## FC(F)(F)c1ccc2cc(CCCCCC[n+]3cccc4ccccc43)[nH]c2c1 [Compound 399]
[1]
  % Inhibition: 15.22%

## CC(=O)c1ccc2[nH]c(CCCCCCCCOC(=O)c3cccc([N+](C)(C)C)c3)cc2c1 [Compound 879]
  IC50: 40 µM
  inhibition at 100 µM: 99.6%

## O=[N+]([O-])c1ccc2c(ccn2CCCCCCCC[n+]2ccccc2)c1 [Compound 6]
[1]
  % Inhibition: 5.67%

## O=[N+]([O-])c1cc([N+](=O)[O-])c2[nH]c(CCC[n+]3cccc4ccccc43)cc2c1 [Compound 414]
[1]
  % Inhibition: 6.91%

## C[N+](C)(C)c1ccc(CC(=O)OCCCCCCCCOc2ccccc2C(N)=O)cc1 [Compound 1080]
  IC50: 100 µM
  inhibition at 200 µM: 83%

## CC(=O)C=Cc1ccc(OCCCCCCCCOC(=O)Cc2ccc([N+](C)(C)C)cc2)cc1 [Compound 1081]
  IC50: 67.5 µM
  inhibition at 200 µM: 84%

## Cc1ccc2[nH]c(CCC[n+]3cccc4ccccc43)cc2c1 [Compound 402]
Compound at 0.1 mM (Table 314)
  % Inhibition: 4.71%

## C[N+](C)(C)c1ccc(CC(=O)OCCCCCCCCOc2cccc(N3CCOCC3)c2)cc1 [Compound 1092]
[2]
  % Inhibition: 60%

## C[n+]1cccc(CC(=O)OCCCCCCCc2cc3cc(C(=O)c4ccccc4)ccc3[nH]2)c1 [Compound 941]
  IC50: 50 µM
  inhibition at 100 µM: 100%

## c1ccc(-c2ccc3[nH]c(CCCC[n+]4ccccc4)cc3c2)cc1 [Compound 325]
Compound at 0.1 mM (Table 314)
  % Inhibition: 53.22%

## O=[N+]([O-])c1cc([N+](=O)[O-])c2[nH]c(CCCCCCC[n+]3ccccc3)cc2c1 [Compound 310]
[1]
  % Inhibition: 38.29%

## CCCCc1ccc2[nH]c(CCC[n+]3cccc4ccccc43)cc2c1 [Compound 420]
[1]
  % Inhibition: 9.16%

## COC(=O)c1cc2cc(OCc3ccccc3)ccc2n1CCCCCCCOC(=O)c1ccc(CN(C)C)cc1 [Compound 1096]
NAD synthetase enzyme inhibition, read-out: IC50 of Compounds
  IC50: 68.9 µM
[2]
  % Inhibition: 140%

## COC(=O)c1cc2cc(OCc3ccccc3)ccc2n1CCCCCCCOC(=O)Cc1ccc(N(C)C)cc1 [Compound 964]
Compound at 0.05 mM
  % Inhibition: 1.18%

## CCCCc1oc2ccccc2c1C(=O)c1ccc(OCCCOC(=O)c2ccc[n+](C)c2)cc1 [Compound 1064]
  IC50: 37.5 µM
  inhibition at 200 µM: 92%

## COc1ccc2[nH]c(CCCCCCC[n+]3ccc4ccccc4c3)cc2c1 [Compound 592]
[1]
  % Inhibition: 18.70%

## COC(=O)c1cc2cc(OCc3ccccc3)ccc2n1CCCCCCCOC(=O)c1ccc(C[N+](C)(C)C)cc1 [Compound 1097]
  IC50: 63.7 µM
  inhibition at 200 µM: 98%

## CC(=O)c1ccc2[nH]c(CCCCOC(=O)Cc3ccc[n+](C)c3)cc2c1 [Compound 937]
Compound at 0.25 mM
  % Inhibition: 88.8%

## Fc1cc(F)c2[nH]c(CCCCCCCC[n+]3ccccc3)cc2c1 [Compound 305]
[1]
  % Inhibition: 54.83%

## CC(C)c1ccc2[nH]c(CCCCCCC[n+]3ccccc3)cc2c1 [Compound 322]
[1]
  % Inhibition: 14.40%

## O=[N+]([O-])c1ccc2[nH]c(CCCCCCC[n+]3ccccc3)cc2c1 [Compound 334]
[1]
  % Inhibition: 41.67%

## C[n+]1cccc(CC(=O)OCCCCc2cc3cc(Oc4ccccc4)ccc3[nH]2)c1 [Compound 931]
Compound at 0.25 mM
  % Inhibition: 15.8%

## C[n+]1cccc(C(=O)OCCCCCCCCc2cc3ccc(C(F)(F)F)cc3[nH]2)c1 [Compound 915]
Compound at 0.25 mM
  % Inhibition: 95.7%

## COc1ccc2[nH]c(CCCCCCC[n+]3ccccc3)cc2c1 [Compound 376]
Compound at 0.1 mM (Table 314)
  % Inhibition: 37.32%

## O=C(c1ccccc1)c1ccc2[nH]c(CCCCCCCC[n+]3cccc4ccccc43)cc2c1 [Compound 467]
[1]
  % Inhibition: 15.08%

## COc1cccc(OCCCCCCCCOC(=O)Cc2ccc([N+](C)(C)C)cc2)c1 [Compound 1077]
[2]
  % Inhibition: 73%

## O=C(O)c1ccc2[nH]c(CCC[n+]3ccc4ccccc4c3)cc2c1 [Compound 600]
[1]
  % Inhibition: 3.10%

## COC(=O)c1cc2cc(OCc3ccccc3)ccc2n1CCCCCCCCCOC(=O)c1ccc[n+](C)c1 [Compound 978]
Compound at 0.1 mM (Table 314)
  % Inhibition: 80.31%

## c1ccc(C(c2ccccc2)(c2ccccc2)c2ccc3[nH]c(CCC[n+]4ccccc4)cc3c2)cc1 [Compound 336]
Compound at 0.1 mM (Table 314)
  % Inhibition: 18.02%

## FC(F)(F)c1ccc2[nH]c(CCCC[n+]3ccc4ccccc4c3)cc2c1 [Compound 577]
[1]
  % Inhibition: 20.58%

## C[n+]1cccc(C(=O)OCCCCc2cc3ccc(C(F)(F)F)cc3[nH]2)c1 [Compound 913]
Compound at 0.25 mM
  % Inhibition: 7.6%

## O=C(c1ccccc1)c1ccc2[nH]c(CCCCCCC[n+]3ccc4ccccc4c3)cc2c1 [Compound 574]
[1]
  % Inhibition: 11.95%

## Fc1ccc2[nH]c(CCCCCCC[n+]3cccc4ccccc43)cc2c1 [Compound 454]
[1]
  % Inhibition: 7.95%

## FC(F)(F)c1ccc2cc(CCCC[n+]3ccc4ccccc4c3)[nH]c2c1 [Compound 505]
[1]
  % Inhibition: 25.51%

## O=C(OCCCCCCn1ccc2ccccc21)c1cccnc1 [Compound 943]
Compound at 0.1 mM (Table 314)
  % Inhibition: 21.38%

## C[n+]1cccc(C(=O)OCCCOc2ccc(C(=O)c3ccccc3)cc2)c1 [Compound 1068]
  IC50: 62.5 µM
  inhibition at 200 µM: 92%

## c1ccc(C(c2ccccc2)(c2ccccc2)c2ccc3[nH]c(CCCCCC[n+]4ccc5ccccc5c4)cc3c2)cc1 [Compound 555]
[1]
  % Inhibition: 30.89%

## CC(C)c1ccc2[nH]c(CCC[n+]3ccc4ccccc4c3)cc2c1 [Compound 534]
[1]
  % Inhibition: 26.99%

## Cc1ccc2[nH]c(CCCC[n+]3ccc4ccccc4c3)cc2c1 [Compound 511]
[1]
  % Inhibition: 11.02%

## O=C(O)c1ccc2[nH]c(CCCCCCCC[n+]3cccc4ccccc43)cc2c1 [Compound 497]
[1]
  % Inhibition: 29.10%

## CC(=O)c1cccc(OCCCCCCCCOC(=O)c2cccnc2)c1 [Compound 1015]
[2]
  % Inhibition: 15%

## CCCCc1ccc2[nH]c(CCCCCCCC[n+]3cccc4ccccc43)cc2c1 [Compound 425]
[1]
  % Inhibition: 19.12%

## CC(=O)c1ccc2[nH]c(CCCCOC(=O)c3ccc([N+](C)(C)C)cc3)cc2c1 [Compound 892]
Compound at 0.25 mM
  % Inhibition: 97.7%

## Fc1cc(F)c2[nH]c(CCCC[n+]3ccccc3)cc2c1 [Compound 301]
[1]
  % Inhibition: 6.12%

## C[n+]1cccc(C(=O)OCCCCCCCCn2ccc3cc([N+](=O)[O-])ccc32)c1 [Compound 867]
[1]
  % Inhibition: 70.33%

## C[n+]1cccc(C(=O)OCCCCCCCCCn2ccc3ccccc32)c1 [Compound 970]
  IC50: 55 µM
  inhibition at 200 µM: 96.7%

## C[n+]1cccc(C(=O)OCCCCCCCCOc2ccccc2C(N)=O)c1 [compound 1060]
[2]
  % Inhibition: 19%

## C[n+]1cccc(C(=O)OCCCCCCCCOc2ccccc2[N+](=O)[O-])c1 [compound 1055]
[2]
  % Inhibition: 46%

## Fc1ccc2[nH]c(CCCCCCC[n+]3ccccc3)cc2c1 [Compound 346]
Compound at 0.1 mM (Table 314)
  % Inhibition: 42.57%

## O=[N+]([O-])c1cc([N+](=O)[O-])c2[nH]c(CCCCCC[n+]3ccc4ccccc4c3)cc2c1 [Compound 525]
[1]
  % Inhibition: 8.39%

## CN(C)c1ccc(CC(=O)OCCCCCCCCOc2ccccc2C=CC(=O)c2ccccc2)cc1 [Compound 1038]
[2]
  % Inhibition: 22%

## C[n+]1cccc(CC(=O)OCCCCCCCCc2cc3ccc(C(F)(F)F)cc3[nH]2)c1 [Compound 930]
Compound at 0.25 mM
  % Inhibition: 96.7%

## C[n+]1cccc(C(=O)OCCCCCCCCOc2cccc([N+](=O)[O-])c2)c1 [Compound 1065]
  IC50: 37.5 µM
  inhibition at 200 µM: 81%

## C[N+](C)(C)c1ccc(CC(=O)OCCCCCCCCOc2ccccc2N2CCOCC2)cc1 [Compound 1093]
[2]
  % Inhibition: 66%

## O=[N+]([O-])c1cc([N+](=O)[O-])c2[nH]c(CCCC[n+]3ccc4ccccc4c3)cc2c1 [Compound 523]
[1]
  % Inhibition: 18.12%

## C[n+]1cccc(C(=O)OCCCCCCCCc2cc3cc(Oc4ccccc4)ccc3[nH]2)c1 [Compound 918]
Compound at 0.25 mM
  % Inhibition: 98.6%

## Fc1cc(F)c2[nH]c(CCCCC[n+]3ccccc3)cc2c1 [Compound 302]
[1]
  % Inhibition: 21.48%

## CN(C)c1ccc(CC(=O)OCCCCCCCCOc2ccccc2C(N)=O)cc1 [Compound 1031]
  IC50: 36.3 µM
  inhibition at 200 µM: 23%

## C[N+](C)(C)c1ccc(CC(=O)OCCCCCCCCOc2ccc([N+](=O)[O-])cc2)cc1 [Compound 1073]
[2]
  % Inhibition: 78%

## FC(F)(F)c1ccc2cc(CCCCC[n+]3ccccc3)[nH]c2c1 [Compound 290]
Compound at 0.1 mM (Table 314)
  % Inhibition: 12.89%

## O=C(OCCCCCCCCOc1cccc(N2CCOCC2)c1)c1cccnc1 [Compound 1018]
[2]
  % Inhibition: 17%

## O=C(O)c1ccc2[nH]c(CCCC[n+]3cccc4ccccc43)cc2c1 [Compound 493]
[1]
  % Inhibition: 9.12%
